Source: patent publication US20150038435A1, “N-TERMINALLY MODIFIED OLIGOPEPTIDES AND USES THEREOF” (Novo Nordisk A/S, priority 2012, published 2015)
pEC50: −log10 of the molar value. *: point of attachment. C12 diacid = O=C(O)CCCCCCCCCCC(=O)*; Lauroyl = CCCCCCCCCCCC(=O)*

Key:
Chymotrypsin = assay: Inhibition of enzymatic degradation of a model GLP-1 (FRET substrate) by chymotrypsin; type: biochemical; conditions: for pEC50: read-out: EC50 Chymotrypsin (0.001 mg/ml), 0.001 mg/ml chymotrypsin, 37° C., ± standard error if at least 3 measurements
How it was run: (§1)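 Initial-rate slopes of fluorescence rise (320 nm ex, 405 nm em), fitted over the linear early phase and averaged from duplicates, were plotted against inhibitor concentration and fitted logistically to give EC50. Reactions ran at 37° C in Dulbecco's PBS, with MCA/DNP GLP-1 FRET substrate added as 10 μl of 100 μM stock.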

Trypsin = assay: Inhibition of enzymatic degradation of a model GLP-1 (FRET substrate) by trypsin; type: biochemical; conditions: for pEC50: read-out: EC50 Trypsin (0.001 mg/ml), 0.001 mg/ml trypsin, 37° C.
How it was run: as §1

[1] = Hydrophobicity: retention time during reverse phase HPLC; type: physicochemical; conditions: Acquity CSH C18; pH 7.2 buffer/CH3CN gradient; 40° C.
From the text: The retention time (RT) during reverse phase HPLC was taken as a measure of hydrophobicity of an N-terminally modified peptide or oligopeptide of the invention, where the connection is: The longer the RT, the more hydrophobic N-terminally modified peptide or oligopeptide. The following running conditions were applied during HPLC analysis:
Buffer B: 70% (v/v) aq. CH3CN

[2] = compound 0.1 mM, buffer containing 8% DMSO

Substance | Slope of the initial increase in fluorescence obtained during incubation with 0.001 mg/ml Chymotrypsin (Chymotrypsin; [2]) | Slope of the initial increase in fluorescence obtained during incubation with 0.001 mg/ml Trypsin (Trypsin; [2]) | RT (retention time during reverse phase HPLC as a measure of hydrophobicity) [1] | Slope of the initial increase in fluorescence obtained during incubation with 0.001 mg/ml Chymotrypsin (Chymotrypsin; compound 1 mM) | pEC50 (Chymotrypsin) | Slope of the initial increase in fluorescence obtained during incubation with 0.001 mg/ml Trypsin (Trypsin; compound 1 mM) | pEC50 (Trypsin)
N-dodecanoyl-Asp-Pro-Tyr-OH [Example 115] | 2.04 | 1.73 | 3.91 min |  |  |  | 
N-dodecanoyl-Asn-Ala-Pro-Tyr-OH (Lauroyl-NAPY-OH; SMILES CCCCCCCCCCCC(=O)N[C@@H](CC(N)=O)C(=O)N[C@@H](C)C(=O)N1CCC[C@H]1C(=O)N[C@@H](Cc1ccc(O)cc1)C(=O)O) [Example 94] | 1.83 | 1.90 | 4.77 min |  |  |  | 
N-tetradecanoyl-γGlu-OEG-Ala-Ala-Pro-Phe-OH [Example 126] |  |  | 5.02 min | 0.05 | 3.99 | 0.30 | < 3.30
N-dodecanoyl-Ala-Ala-Ala-Ala-Pro-Phe-OH [Example 19] |  |  | 6.57 min |  | 3.92 |  | 4.42
N-dodecanoyl-γGlu-OEG-OEG-DArg-OH [Example 133] |  |  | 3.62 min | 0.27 |  | 0.09 | 
N-dodecanoyl-Ser-Ala-Pro-Tyr-OH (Lauroyl-SAPY-OH; SMILES CCCCCCCCCCCC(=O)N[C@@H](CO)C(=O)N[C@@H](C)C(=O)N1CCC[C@H]1C(=O)N[C@@H](Cc1ccc(O)cc1)C(=O)O) [Example 51] | 0.41 | 1.66 | 5.2 min |  |  |  | 
N-dodecanoyl-Ala-His-Pro-Tyr-OH (Lauroyl-AHPY-OH; SMILES CCCCCCCCCCCC(=O)N[C@@H](C)C(=O)N[C@@H](Cc1c[nH]cn1)C(=O)N1CCC[C@H]1C(=O)N[C@@H](Cc1ccc(O)cc1)C(=O)O) [Example 79] | 0.51 | 1.93 | 5.29 min |  |  |  | 
N-dodecandioyl-Ala-Ala-Pro-Phe-OH ({C12 diacid}-AAPF-OH) [Example 15] |  |  | 3.13 min | 2.07 |  | 4.17 | 
N-dodecanoyl-γGlu-Pro-Tyr-OH [Example 100] | 1.75 | 1.69 | 3.9 min |  |  |  | 
N-dodecanoyl-Leu-Ala-Pro-Tyr-OH (Lauroyl-LAPY-OH; SMILES CCCCCCCCCCCC(=O)N[C@@H](CC(C)C)C(=O)N[C@@H](C)C(=O)N1CCC[C@H]1C(=O)N[C@@H](Cc1ccc(O)cc1)C(=O)O) [Example 43] | 0.21 | 1.36 | 7.86 min |  |  |  | 
N-dodecanoyl-Arg-Pro-Tyr-OH [Example 113] | 0.18 | 2.00 | 5.29 min |  |  |  | 
N-dodecanoyl-OEG-OEG-Phe-OEG-OH [Example 130] |  |  | 6.21 min | 0.54 |  | 0.67 | 
